Data taken from US6518423B1, “Benzopiperidine derivatives” (Eisai Co., Ltd., priority 1996, dated 2003).

Compound	melting point
NS(=O)(=O)NCCc1cn(Cc2ccc3c(c2)Nc2nccnc2S3)cn1	187 to 189 °C
c1cn(Cc2ccc3c(c2)Nc2nccnc2O3)cn1	252 to 255 °C
O=c1ccn(Cc2ccc3c(c2)Nc2nccnc2S3)c(=O)[nH]1	269 to 271 °C
c1cnc2c(c1)ccn2Cc1ccc2c(c1)Nc1nccnc1S2	202 to 204 °C
c1cc2ccnc-2n(Cc2ccc3c(c2)Nc2nccnc2S3)c1	210 to 214 °C
c1ccc2c(c1)nnn2Cc1ccc2c(c1)Nc1nccnc1S2	251 to 258 °C
C(=C\c1ccc2c(c1)Nc1nccnc1S2)/c1ccncc1	> 275 °C
OC(c1cncnc1)c1ccc2c(c1)Nc1nccnc1S2 (centres unmarked)	218 to 221 °C
OC(c1ccc(Br)nc1)c1ccc2c(c1)Nc1nccnc1S2 (centres unmarked)	221 to 223 °C
c1ccc(NCc2ccc3c(c2)Nc2nccnc2S3)cc1	183 to 186 °C
CN(CCCC(C)(C)C(=O)O)Cc1ccc2c(c1)Nc1nccnc1S2	200 to 202 °C
CNS(=O)(=O)CCN(C)Cc1ccc2c(c1)Nc1nccnc1S2	143 to 146 °C
O=C(NCc1ccc2c(c1)Nc1nccnc1S2)c1ccncc1	249 to 253 °C (dec.)
CC1CC(C)CN(c2ncnc3c2ncn3Cc2ccc3c(c2)Nc2nccnc2S3)C1 (centres unmarked)	237 to 238 °C
c1cnc2c(n1)Nc1cc(Cn3cnc4ncnc(N5CCOCC5)c43)ccc1S2	269 to 273 °C
O=C(O)CCCCCCCCCCSc1ncnc2c1ncn2Cc1ccc2c(c1)Nc1nccnc1S2	154 to 156 °C
CN(C)C(=O)/N=C(\N)Cc1ccc2c(c1)Nc1nccnc1S2	158 to 161 °C
N#CN=C(Cc1ccc2c(c1)Nc1nccnc1S2)NCc1ccc(S(N)(=O)=O)cc1	241 to 245 °C
N#CN=C(Cc1ccc2c(c1)Nc1nccnc1S2)NO	253 to 256 °C
CONC(Cc1ccc2c(c1)Nc1nccnc1S2)=NC#N	172 to 174 °C
N#CN=C(Cc1ccc2c(c1)Nc1nccnc1S2)NCCCC(=O)O	217 to 218 °C (dec.)
CS(=O)(=O)/N=C/NCc1ccc2c(c1)Nc1nccnc1S2	175 to 176 °C

Compound	melting point
O=S(=O)(NC1CCN(Cc2ccc3c(c2)Nc2nccnc2S3)CC1)c1ccccc1	157 to 158 °C
c1cc2c(cn1)Sc1ccc(CN3CCCCC3)cc1N2	163 to 166 °C
CN(C)S(=O)(=O)NC1CCN(Cc2ccc3c(c2)Sc2nccnc2N3)CC1	172 to 173 °C
CN(C)c1c(N2CCN(Cc3ccc4c(c3)Nc3nccnc3S4)CC2)c(=O)c1=O	296 to 300 °C (dec.)
c1ccc2c(c1)CCN(Cc1ccc3c(c1)Nc1nccnc1S3)C2	188 to 191 °C
O=C(O)Cc1cc2c(s1)CN(Cc1ccc3c(c1)Nc1nccnc1S3)CC2	98 to 105 °C
CN1c2ccccc2Nc2nccnc21	229 to 231 °C
COc1ccc2c(c1)Nc1nccnc1N2C	198 to 201 °C
Cl.Oc1ccc2c(c1)Nc1nccnc1N2	> 275 °C
COCc1ccc2c(c1)Nc1nccnc1N2C	169 to 172 °C
OCCN1c2ccccc2Nc2nccnc21	197 to 204 °C
OCCCCN1c2ccccc2Nc2nccnc21	138 to 139 °C
NC(=O)NCCN1c2ccccc2Nc2nccnc21	231 to 233 °C
CN(C)CC#Cc1ccc2c(c1)Nc1nccnc1N2C	188 to 189 °C
c1csc(NCc2ccc3c(c2)Nc2nccnc2S3)n1	230 to 235 °C
c1cc(CNCc2ccc3c(c2)Nc2nccnc2S3)ccn1	174 to 176 °C
FC(F)(F)c1cnc(NCc2ccc3c(c2)Nc2nccnc2S3)c(Cl)c1	158 to 161 °C
COC(=O)c1ccc(NCc2ccc3c(c2)Nc2nccnc2S3)nc1	140 to 148 °C
Nc1ncccc1NCc1ccc2c(c1)Nc1nccnc1S2	225 to 228 °C
CC(=O)N(Cc1ccc2c(c1)Nc1nccnc1S2)c1cccnc1	212 to 214 °C
O=C(Nc1ccccc1)N(Cc1ccc2c(c1)Nc1nccnc1S2)c1cccnc1	208 to 210 °C

The next lines start with the values.

melting point	Compound
218 to 219 °C	O=Cc1nccn1Cc1ccc2c(c1)Nc1nccnc1S2
223 to 226 °C	c1cnc2c(n1)Nc1cc(Cn3cncn3)ccc1S2
123 to 127 °C	OCCC1C2CCCC1CN(Cc1ccc3c(c1)Nc1nccnc1S3)C2 (centres unmarked)
217 to 220 °C	O=C(O)C1CCC(CNCc2ccc3c(c2)Nc2nccnc2S3)CC1 (centres unmarked)
181 to 183 °C	CC(C)(CO)C1C2CCCC1CN(Cc1ccc3c(c1)Nc1nccnc1S3)C2 (centres unmarked)
> 280 °C	Cl.c1cnc2c(n1)Nc1cc(CC3=NCCCN3)ccc1S2
174 to 175 °C	Cl.N=C(Cc1ccc2c(c1)Nc1nccnc1S2)NCCO
265 to 267 °C	N=C(Cc1ccc2c(c1)Nc1nccnc1S2)N1CCC(O)CC1
166 to 171 °C	CC(CCC1CCN(C(=N)Cc2ccc3c(c2)Nc2nccnc2S3)CC1)C(=O)O.Cl (centres unmarked)
187 to 189 °C	OCc1ccc2c(c1)Nc1nccnc1S2
161 to 162 °C	ClCc1ccc2c(c1)Nc1nccnc1S2
148 to 152 °C	OCCC1CCN(Cc2ccc3c(c2)Nc2nccnc2S3)CC1
198 to 199 °C	N#CC1CCN(Cc2ccc3c(c2)Nc2nccnc2S3)CC1
164 to 166 °C	O=S(=O)(NCCO)NC1CCN(Cc2ccc3c(c2)Nc2nccnc2S3)CC1
180 to 182 °C	O=C1CC2(CCN(Cc3ccc4c(c3)Nc3nccnc3S4)CC2)CO1
211 to 212 °C	O=C1CC2(CCN(Cc3ccc4c(c3)Nc3nccnc3S4)CC2)CN1

melting point	Compound
215 to 217 °C (dec.)	NS(=O)(=O)N1CCN(Cc2ccc3c(c2)Nc2nccnc2S3)CC1
186 to 190 °C	N=C(NC1CCN(Cc2ccc3c(c2)Nc2nccnc2S3)CC1)C(=O)O
218 to 221 °C	CS(=O)(=O)NCC1CCN(Cc2ccc3c(c2)Nc2nccnc2S3)CC1
84 to 88 °C	CS(=O)(=O)NCC1CN(Cc2ccc3c(c2)Nc2nccnc2S3)C1
234 °C (dec.)	CC(=NC#N)N1CCN(Cc2ccc3c(c2)Nc2nccnc2S3)CC1
133 to 135 °C	c1cnc2c(n1)Nc1cc(CN3CCCCCCC3)ccc1S2
207 to 209 °C	C/C(=C\C(=O)O)C1CCN(Cc2ccc3c(c2)Nc2nccnc2S3)CC1
200 to 203 °C	O=C(O)/C=C1\CCCN(Cc2ccc3c(c2)Nc2nccnc2S3)C1
239 to 242 °C	CC(CCC1CCN(CC(O)c2ccc3c(c2)Nc2nccnc2S3)CC1)C(=O)O (centres unmarked)
152 to 154 °C	O=C(O)Cc1ccccc1C1CCN(Cc2ccc3c(c2)Nc2nccnc2S3)CC1
126 to 130 °C	C/C(=C\C(=O)O)CC1CCN(Cc2ccc3c(c2)Nc2nccnc2S3)CC1
214 to 216 °C	O=C(O)C=C1CCN(Cc2ccc3c(c2)Nc2nccnc2S3)CC1
84 to 89 °C	CC(CCC1CCN(C(=O)Cc2ccc3c(c2)Nc2nccnc2S3)CC1)C(=O)O (centres unmarked)
104 to 108 °C	CC(CCC1C2CCCC1CN(Cc1ccc3c(c1)Nc1nccnc1S3)C2)C(=O)O (centres unmarked)
226 to 229 °C	CC12CCCC(C)(CN(Cc3ccc4c(c3)Nc3nccnc3S4)C1)C2CC(=O)O (centres unmarked)
